System: healthy participants
Experiment: Phase I trial NCT03856827, healthy participants aged 18 to 62: EEG
Format: in vivo, human
Description: Electroencephalography (EEG) is a technique that measures electrical activity in the brain (brain electrophysiology) by using electrodes places on the scalp. EEG-power spectral signals may be analyzed at different frequencies or frequency bands. They were analyzed at the following frequency bands in two prior phase 1 clinical trials with Compound I described below: Delta-1-4 Hz (typically associated with sleep), Theta-4-7.5 Hz (associated with waking/falling asleep, some association with cognition), Alpha-8-12 Hz (associated with passive wakefulness, and with cognitive processing), Beta-12-25 Hz (associated with alertness and concentration) and Gamma-25-45 Hz (associated with higher cognitive function). qEEG stands for quantitative electroencephalography. […]
During EEG-ERP experiments, several key waveforms may be evaluated following a stimulus: N200 (associated with stimulus identification and distinction), P300 (associated with selective attention, information processing and cognitive speed/capacity), P200 (associated with aspects of selective attention or stimulus encoding), P50 (assciated with sensory gating, or the reduced neurophysiological response to redundant stimuli), and N100 (associated with early perceptal processes). […]

Fc1ccccc1Cc1nc(-c2nc(C(F)(F)F)n[nH]2)cn2ccnc12 [Compound I, zagociguat]
ERP P300 amplitude (QD dosing, healthy participants aged 18 to 62): increase in amplitude with increasing dose level | alpha power (day 14, all dosage levels tested, compared to placebo): Improvements in alpha power

From patent US20250367191A1, “TREATMENT OF MITOCHONDRIAL DISEASES WITH A CNS-PENETRANT SGC STIMULATOR ZAGOCIGUAT” (Tisento Therapeutics Inc., priority 2022, published 2025)
